Test results as given in patent US11932654B2, “Nimbolide analogs as anti-cancer agents and preparation thereof” (priority 2018, dated 2024).

Experiments:
Format in all cases: cell-based
[1] = tested on: DU-145 prostate cancer cell line; experiment: In vitro anticancer activity, SRB assay, DU-145; conditions: Homo sapiens, 48 h, NA = Not Active
Experimental: (§1) Cell culture: Human lung adenocarcinoma cell line (A549 cell line), pancreatic cancer cell line (Panc-1, Pan-02), prostate cancer cell line (DU145, PC3), Brest cancer cell line (MCF-7) was grown in DIEM (Dulbecco's modifications of eagle's medium with L-glutamine & 4.5 g/L glucose) supplemented with fetal bovine serum in a humidified atmosphere of a 5% CO2 at 37° C.
(§2) In vitro anticancer activity: Cells were harvested from exponential phase cultures by trypsinization, counted and plated in 96-well plate. Optimal seeding densities for different cell lines in each plate were 5000 cells per well. After 24 h cells were treated with \ the newly synthesized compound at a dose range of 0.1-100 μm final concentration. Thereafter, cells were allowed to grow for 48 h before determination of cell survival by the SRB assay. Then the cells were fixed with 10% cold trichloroacetic acid for 1 h at 4° C. After two washes with deionized water, fixed cells were stained with 50 μL of SRB solution (1% in acetic acid) for 30 min and subsequently washed twice with 1% acetic acid to remove unbound stain. The plates were left to dry at room temperature and bound stain was solubilized with 100 μL of 10 mM buffered Tris base for reading the […] at 540 nm.

[2] = tested on: A549 lung adenocarcinoma cell line; experiment: In vitro anticancer activity, SRB assay, A549; conditions: Homo sapiens, 48 h, NA = Not Active
Experimental: as §1, §2

[3] = tested on: PC3 prostate cancer cell line; experiment: In vitro anticancer activity, SRB assay, PC3; conditions: 48 h, NA = Not Active
Experimental: as §1, §2

[4] = tested on: MCF-7 breast cancer cell line; experiment: In vitro anticancer activity, SRB assay, MCF-7; conditions: Homo sapiens, MCF7, 48 h, NA = Not Active
Experimental: as §1, §2

[5] = tested on: Panc-1 pancreatic cancer cell line; experiment: In vitro anticancer activity, SRB assay, Panc-1; conditions: Homo sapiens, 48 h, NA = Not Active
Experimental: as §1, §2

| SMILES | IC50 [1] [µM] | IC50 [2] [µM] | IC50 [3] [µM] | IC50 [4] [µM] | IC50 [5] [µM] |
| --- | --- | --- | --- | --- | --- |
| COC(=O)C[C@H]1[C@]2(C)C3=C(C)[C@H](c4ccoc4)C[C@@H]3O[C@@H]2[C@@H]2OC(=O)[C@]3(C)C(OCc4ccccc4)CC(=O)[C@@]1(C)C23 (stereo partly shown) [A2] | 1.45 | 13.1 | 1.01 | 4.72 | 8.78 |
| COC(=O)C[C@H]1[C@]2(C)C3=C(C)[C@H](c4ccoc4)C[C@@H]3O[C@@H]2[C@@H]2OC(=O)[C@]3(C)C(C(O)c4ccc([N+](=O)[O-])cc4)=CC(=O)[C@@]1(C)C23 (stereo partly shown) [A3] | 9.31 | 12.2 | 9.08 | 4.74 | 7.79 |
| COC(=O)C[C@H]1[C@]2(C)C3=C(C)[C@H](c4ccoc4)C[C@@H]3O[C@@H]2[C@@H]2OC(=O)[C@]3(C)C4CC4C(=O)[C@@]1(C)C23 (stereo partly shown) [A5] | 7.91 | 60.8 | 20.6 | 17.1 | 1.04 |
| COC(=O)C[C@H]1[C@]2(C)C3=C(C)[C@H](c4ccoc4)C[C@@H]3O[C@@H]2[C@@H]2OC(=O)[C@]3(C)CCC(=O)[C@@]1(C)C23 (stereo partly shown) [A6] | 75.1 | 67.2 | 79.1 | 32.5 | 32.9 |
| COC(=O)C[C@H]1[C@]2(C)C3=C(C)[C@H](c4ccoc4)C[C@@H]3O[C@@H]2[C@@H]2OC(=O)[C@]3(C)C(Sc4cccc(N)c4)CC(=O)[C@@]1(C)C23 (stereo partly shown) [A7] |  | 23.9 | 65.3 | 52.2 | 18.6 |
| COC(=O)C[C@H]1[C@]2(C)C3=C(C)[C@H](c4ccoc4)C[C@@H]3O[C@@H]2[C@@H]2OC(=O)[C@]3(C)C(Nc4ccccc4)CC(=O)[C@@]1(C)C23 (stereo partly shown) [A8] |  | 89.4 | 21 | 56.6 | 85.5 |
